What all share (experiment): Screen Quest Fluo-8 No Wash Calcium Assay (Bz-ATP evoked Ca2+ influx, FLIPR)
Holding throughout (type): cell-based

Experiment [1] concerns the target T1, P2X7 receptor (Mus musculus, UniProt Q9Z1M0).
T1 construct: mP2X7 (IC50; nM); other: mP2X7; HEK-293 cells stably transfected with P2X7 receptor, Bz-ATP at EC80, Fluo-8 NW; potency
T1 sequence (Q9Z1M0 1-595): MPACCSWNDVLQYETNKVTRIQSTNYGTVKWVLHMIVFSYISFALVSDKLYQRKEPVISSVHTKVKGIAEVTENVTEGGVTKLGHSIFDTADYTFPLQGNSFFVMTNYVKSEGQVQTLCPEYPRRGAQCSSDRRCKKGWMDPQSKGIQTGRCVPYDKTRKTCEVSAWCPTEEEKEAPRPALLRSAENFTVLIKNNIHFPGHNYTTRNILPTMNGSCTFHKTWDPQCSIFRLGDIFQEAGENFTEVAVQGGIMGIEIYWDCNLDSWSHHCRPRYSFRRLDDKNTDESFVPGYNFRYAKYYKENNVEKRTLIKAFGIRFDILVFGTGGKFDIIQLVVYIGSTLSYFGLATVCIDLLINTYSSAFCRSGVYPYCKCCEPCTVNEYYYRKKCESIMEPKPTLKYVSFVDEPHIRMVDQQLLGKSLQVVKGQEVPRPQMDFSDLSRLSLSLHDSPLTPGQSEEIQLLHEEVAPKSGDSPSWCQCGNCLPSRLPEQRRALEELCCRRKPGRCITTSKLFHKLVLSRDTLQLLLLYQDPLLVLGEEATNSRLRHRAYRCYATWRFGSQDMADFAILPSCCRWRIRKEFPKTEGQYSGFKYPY
The settings on record: mP2X7; HEK-293 cells stably transfected with P2X7 receptor, Bz-ATP at EC80, Fluo-8 NW; potency ranges A-D. On the procedure: (§1) Extracellular binding of Bz-ATP to P2X7 receptor opens the channel and allows Ca2+ influx into the cells. […] Once inside the cell, the lipophilic blocking groups of Fluo-8 are cleaved by non-specific cell esterases, resulting in a negatively-charged fluorescent dye that stays inside cells. Its fluorescence increases upon binding to calcium.
(§2) HEK-293 cells stably transfected with P2X7 receptor were seeded overnight in growth medium at 10,000 to 20,000 cell/well in 384-well plate. 24 hours later, the medium was removed and the cells were pre-loaded at RT for 1 hour with 20 μL/w of Fluo-8 NW. Then 10 μL/w of tests compounds and reference antagonist A438079 at 3×-concentration were injected with the […] and the kinetic response over a period of five minutes was monitored. A second injection of 15 μL/w of 3× reference activator (Bz-ATP at EC80) was performed with the […] and the signal of the emitted fluorescence was recorded for additional three minutes. All the experiment was carried out in a Low Divalent Cation Assay Buffer (0.3 mM Ca^2+ and 0 mM Mg^2+). The effect of the test compounds was measured as percent inhibition vs the reference antagonist and IC50 values were calculated accordingly.

For experiment [2], the target named is T2, P2X7 receptor (Rattus norvegicus, UniProt Q64663).
T2 construct: rP2X7 (IC50; nM); other: rP2X7; HEK-293 cells stably transfected with P2X7 receptor, Bz-ATP at EC80, Fluo-8 NW; potency
T2 sequence (Q64663 1-595): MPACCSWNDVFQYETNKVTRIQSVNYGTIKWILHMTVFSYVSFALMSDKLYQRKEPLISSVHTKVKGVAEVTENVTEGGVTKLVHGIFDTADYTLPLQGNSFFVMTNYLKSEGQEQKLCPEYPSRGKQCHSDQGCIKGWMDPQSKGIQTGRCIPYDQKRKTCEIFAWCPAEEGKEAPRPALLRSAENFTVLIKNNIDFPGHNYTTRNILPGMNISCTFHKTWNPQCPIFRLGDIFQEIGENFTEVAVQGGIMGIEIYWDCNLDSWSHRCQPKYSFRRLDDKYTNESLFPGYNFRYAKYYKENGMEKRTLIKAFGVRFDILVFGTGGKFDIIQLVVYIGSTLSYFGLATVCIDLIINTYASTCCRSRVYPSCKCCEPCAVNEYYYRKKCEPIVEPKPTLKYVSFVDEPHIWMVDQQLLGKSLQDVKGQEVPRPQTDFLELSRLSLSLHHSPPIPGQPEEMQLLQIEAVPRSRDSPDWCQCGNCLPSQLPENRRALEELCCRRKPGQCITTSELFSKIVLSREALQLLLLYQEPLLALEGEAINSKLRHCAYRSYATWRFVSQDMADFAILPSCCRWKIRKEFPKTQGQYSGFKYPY
The conditions noted are these: rP2X7; HEK-293 cells stably transfected with P2X7 receptor, Bz-ATP at EC80, Fluo-8 NW; potency ranges A-D. Here is the method: as §1, §2

Experiment [3] addresses T3, P2X7 receptor (Homo sapiens, UniProt Q99572).
T3 sequence (Q99572 1-595): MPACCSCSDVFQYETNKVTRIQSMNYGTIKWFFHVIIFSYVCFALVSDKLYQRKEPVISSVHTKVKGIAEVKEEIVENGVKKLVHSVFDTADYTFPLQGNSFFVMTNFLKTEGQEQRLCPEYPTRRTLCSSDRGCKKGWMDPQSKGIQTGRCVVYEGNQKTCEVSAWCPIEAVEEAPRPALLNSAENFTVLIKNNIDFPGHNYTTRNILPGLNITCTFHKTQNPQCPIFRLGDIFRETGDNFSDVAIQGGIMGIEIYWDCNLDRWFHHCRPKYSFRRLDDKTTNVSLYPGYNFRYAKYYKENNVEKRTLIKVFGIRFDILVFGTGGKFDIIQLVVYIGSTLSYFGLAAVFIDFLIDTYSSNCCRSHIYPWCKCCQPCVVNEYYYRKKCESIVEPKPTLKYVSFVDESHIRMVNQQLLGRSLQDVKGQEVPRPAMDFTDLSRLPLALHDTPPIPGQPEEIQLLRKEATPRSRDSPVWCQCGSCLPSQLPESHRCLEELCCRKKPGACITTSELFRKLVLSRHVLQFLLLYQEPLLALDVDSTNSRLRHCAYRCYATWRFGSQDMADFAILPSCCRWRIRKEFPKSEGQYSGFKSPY
Also on record: hP2X7 (IC50; nM); other: hP2X7; HEK-293 cells stably transfected with P2X7 receptor, Bz-ATP at EC80, Fluo-8 NW; potency. The conditions noted are these: hP2X7; HEK-293 cells stably transfected with P2X7 receptor, Bz-ATP at EC80, Fluo-8 NW; potency ranges A-D. Here is the method: as §1, §2

Bounds are passed on as bounds.

With `O=c1onc(Cc2c(F)cccc2Cl)n1CC1CCC(F)(F)C1` (single isomer, unassigned) [Example 148, 3-(2-chloro-6-fluorobenzyl)-4-[(3,3-difluorocyclopentyl)methyl]-1,2,4-oxadiazol-5(4H)-one], the IC50 is 200 to 1000 nM on P2X7 receptor [1], less than 200 nM at P2X7 receptor [2] and less than 200 nM on P2X7 receptor [3].

As to `COc1ccc(Cn2c(Cc3ccc(F)cc3)noc2=O)c(OC)c1` [Example 2, 4-[(2,4-dimethoxyphenyl)methyl]-3-[(4-fluorophenyl)methyl]-4,5-dihydro-1,2,4-oxadiazol-5-one], the IC50 at P2X7 receptor [1] was greater than 10000 nM; at P2X7 receptor [2] it was greater than 10000 nM; on P2X7 receptor [3], 1000 to 10000 nM.

In the case of `COc1ccc(Cn2c(Cc3ccc(F)cc3)noc2=O)cc1` [Example 3, 3-[(4-fluorophenyl)methyl]-4-[(4-methoxyphenyl)methyl]-4,5-dihydro-1,2,4-oxadiazol-5-one], the IC50 on P2X7 receptor [1], on P2X7 receptor [2] and on P2X7 receptor [3] was greater than 10000 nM throughout.

Take `COc1cc(Cn2c(Cc3ccc(F)cc3)noc2=O)cc(OC)c1` [Example 4, 4-[(3,5-dimethoxyphenyl)methyl]-3-[(4-fluorophenyl)methyl]-4,5-dihydro-1,2,4-oxadiazol-5-one]: the IC50 on P2X7 receptor [1], at P2X7 receptor [2] and at P2X7 receptor [3] was greater than 10000 nM throughout.

`O=c1onc(Cc2ccc(F)cc2)n1Cc1cc(F)ccc1Br` [Example 5, 4-[(2-bromo-5-fluorophenyl)methyl]-3-[(4-fluorophenyl)methyl]-4,5-dihydro-1,2,4-oxadiazol-5-one]: the results for the IC50 at P2X7 receptor [1], on P2X7 receptor [2] and at P2X7 receptor [3] were greater than 10000 nM, greater than 10000 nM and 1000 to 10000 nM, respectively.

Turning to `O=c1onc(Cc2ccccc2)n1Cc1c(F)cccc1Cl` [Example 6, 3-benzyl-4-[(2-chloro-6-fluorophenyl)methyl]-4,5-dihydro-1,2,4-oxadiazol-5-one], the IC50 at P2X7 receptor [1], on P2X7 receptor [2] and on P2X7 receptor [3] was 1000 to 10000 nM each time.

Regarding `COc1cccc(Cc2noc(=O)n2Cc2c(F)cccc2Cl)c1` [Example 7, 4-[(2-chloro-6-fluorophenyl)methyl]-3-[(3-methoxyphenyl)methyl]-4,5-dihydro-1,2,4-oxadiazol-5-one], the values for the IC50 on P2X7 receptor [1], on P2X7 receptor [2] and on P2X7 receptor [3] were 1000 to 10000 nM, greater than 10000 nM and 1000 to 10000 nM, respectively.

Consider `Cc1ncsc1Cn1c(Cc2ccc(F)cc2)noc1=O` [Example 8, 3-[(4-fluorophenyl)methyl]-4-[(4-methyl-1,3-thiazol-5-yl)methyl]-4,5-dihydro-1,2,4-oxadiazol-5-one], for which the IC50 at P2X7 receptor [1] is greater than 10000 nM; on P2X7 receptor [2], greater than 10000 nM; at P2X7 receptor [3], 1000 to 10000 nM.

Consider `O=c1onc(Cc2ccc(F)cc2)n1Cc1ccc(Cl)cc1Cl` [Example 9, 4-[(2,4-dichlorophenyl)methyl]-3-[(4-fluorophenyl)methyl]-4,5-dihydro-1,2,4-oxadiazol-5-one], for which the IC50 at P2X7 receptor [1] was greater than 10000 nM; at P2X7 receptor [2] it was 1000 to 10000 nM; on P2X7 receptor [3] it was 200 to 1000 nM.

In the case of `CC(c1ccccc1)n1c(Cc2ccc(F)cc2)noc1=O` (stereo not drawn) [Example 10, 3-[(4-fluorophenyl)methyl]-4-(1-phenylethyl)-4,5-dihydro-1,2,4-oxadiazol-5-one], the figures for the IC50 at P2X7 receptor [1], on P2X7 receptor [2] and on P2X7 receptor [3] were greater than 10000 nM, 1000 to 10000 nM and 200 to 1000 nM, respectively.

Regarding `CC(c1ccc(F)cc1)n1c(Cc2ccc(F)cc2)noc1=O` (stereo not drawn) [Example 11, 4-[1-(4-fluorophenyl)ethyl]-3-[(4-fluorophenyl)methyl]-4,5-dihydro-1,2,4-oxadiazol-5-one], the IC50 at P2X7 receptor [1], on P2X7 receptor [2] and at P2X7 receptor [3] was 1000 to 10000 nM in each case.

Take `O=c1onc(Cc2ccc(F)cc2)n1CC1CCCCC1` [Example 12, 4-(cyclohexylmethyl)-3-[(4-fluorophenyl)methyl]-4,5-dihydro-1,2,4-oxadiazol-5-one]: the IC50 on P2X7 receptor [1] was in the range of 200 to 1000 nM; on P2X7 receptor [2], 200 to 1000 nM; on P2X7 receptor [3] it was 1000 to 10000 nM.

For the molecule `O=c1onc(Cc2cccc(Cl)c2Cl)n1Cc1c(F)cccc1Cl` [Example 13, 4-[(2-chloro-6-fluorophenyl)methyl]-3-[(2,3-dichlorophenyl)methyl]-4,5-dihydro-1,2,4-oxadiazol-5-one], the IC50 at P2X7 receptor [1], at P2X7 receptor [2] and at P2X7 receptor [3] was 1000 to 10000 nM in each case.

Take `O=c1onc(Cc2ccc(F)cc2Cl)n1Cc1c(F)cccc1Cl` [Example 14, 3-[(2-chloro-4-fluorophenyl)methyl]-4-[(2-chloro-6-fluorophenyl)methyl]-4,5-dihydro-1,2,4-oxadiazol-5-one]: the IC50 fell in the range of 1000 to 10000 nM at P2X7 receptor [1], 1000 to 10000 nM at P2X7 receptor [2] and 200 to 1000 nM at P2X7 receptor [3].

Turning to `O=c1onc(Cc2ccc(F)cc2F)n1Cc1c(F)cccc1Cl` [Example 15, 4-[(2-chloro-6-fluorophenyl)methyl]-3-[(2,4-difluorophenyl)methyl]-4,5-dihydro-1,2,4-oxadiazol-5-one], the IC50 at P2X7 receptor [1], at P2X7 receptor [2] and on P2X7 receptor [3] was 1000 to 10000 nM in each case.

In the case of `O=c1onc(Cc2cccc(C(F)(F)F)c2Cl)n1Cc1c(F)cccc1Cl` [Example 16, 3-{[2-chloro-3-(trifluoromethyl)phenyl]methyl}-4-[(2-chloro-6-fluorophenyl)methyl]-4,5-dihydro-1,2,4-oxadiazol-5-one], the figures for the IC50 on P2X7 receptor [1], at P2X7 receptor [2] and on P2X7 receptor [3] were greater than 10000 nM, 1000 to 10000 nM and 1000 to 10000 nM, respectively.

With `O=c1onc(Cc2ccc(Cl)cc2Cl)n1Cc1c(F)cccc1Cl` [Example 17, 4-[(2-chloro-6-fluorophenyl)methyl]-3-[(2,4-dichlorophenyl)methyl]-4,5-dihydro-1,2,4-oxadiazol-5-one], the IC50 at P2X7 receptor [1], at P2X7 receptor [2] and at P2X7 receptor [3] was 1000 to 10000 nM each time.

In general, IC50 refers to the point on the concentration scale where inhibition reaches its midpoint.

The values above are taken from patent publication US11623919B2, “Heterocyclic P2X7 antagonists” (AXXAM S.P.A., priority 2017, dated 2023).
